Results taken from article PMC6271966, “Synthesis and Biological Activity of Some Bile Acid-Based Camptothecin Analogues” (Molecules, 2014).

Experiments:
[1] = test system: human hepatoma cell line (SMMC-7721); experiment: MTT cytotoxicity assay, SMMC-7721; format: cell-based; details: SMMC-7721, 72 h, read-out: In Vitro Cytotoxicity (IC50, µM) SMMC7721
Procedure: (§1) The cytotoxicity of these compounds against three cancer cell lines was assayed using a conventional microtitre plate tetrazolium cytotoxicity assay. The human hepatoma cancer cell line (SMMC-7721), the colon cancer cell line (HCT-116), and the human breast cancer cell line (MCF-7) were provided by The Chinese Academy of Sciences cell bank. These cells were plated at a density of 1 × 10^5 cells/mL and incubated in a 96-well late for 24 h (37 °C, 5% CO2). The cells were then exposed to various concentrations of the compounds (0.0032, 0.016, 0.08, 0.4, 2, 10, and 50 µM/mL) continuously for 72 h. After this incubation, MTT solution (20 μL, 5 mg/mL) was added to each well and incubated for a further 4 h before removing the media. Formazan crystals were then dissolved by the addition of DMSO (100 μL per well). After mixing, the absorbance was read at 540 nm on a microplate reader. These assays were performed in three independent experiments. Wells containing no drugs, or CPT, were used as negative and positive controls, respectively. The IC50 values, defined as the concentration of compounds that produced a 50% decrease in surviving cells, were calculated using the Logit-method.

[2] = test system: human breast cancer cell line (MCF-7); experiment: MTT cytotoxicity assay, MCF-7; format: cell-based; details: MCF7, 72 h, read-out: In Vitro Cytotoxicity (IC50, µM) MCF-7
Procedure: as §1

[3] = test system: human colon cancer cell line (HCT-116); experiment: MTT cytotoxicity assay, HCT-116; format: cell-based; details: HCT-116, 72 h, read-out: In Vitro Cytotoxicity (IC50, µM) HCT-116
Procedure: as §1

[4] = Lactone stability in rat blood serum (HPLC); format: in vitro ADME; details: rat, serum
Procedure: Compounds E2, F2, G2, and H2 were dissolved in DMSO (100 μL, 4 mM/L) and incubated in rat blood serum (4 mL) at 37 °C. Aliquots were taken at different time points (0, 2, 4, 6, 8, 10, 12, and 24 h) and examined by HPLC, using CPT as the reference.

[5] = test system: H22 mouse liver tumours; experiment: In vivo anti-tumour activity, H22 mouse liver tumour model; details: H22 KM mice, i.p. every two days
Procedure: Anti-tumour activity screens of CPT-bile acid analogues were conducted in KM mice with H22 mouse liver tumours. Briefly, female mice weighing 18–22 g were subcutaneously inoculated at the right flank with a tumour cell suspension (1 × 10^6 cells) in 0.2 mL of phosphate-buffered saline. The mice were divided into subgroups 24 h after inoculation. These groups (n = 4) were treated with either vehicle (control), CPT, or the CPT-bile acid analogues. Mice received i.p. treatments once every two days. When the tumour weight of the control group reached 1.0–1.5 g, the mice were killed and the TIR (%) calculated.

[6] = Body weight and surviving mice in the H22 in vivo study; design: species or system mouse; details: for Mice Number End of Study: 4 mice at start
Procedure: Anti-tumour activity screens of CPT-bile acid analogues were conducted in KM mice with H22 mouse liver tumours. […] These groups (n = 4) were treated with either vehicle (control), CPT, or the CPT-bile acid analogues. Mice received i.p. treatments once every two days.

Structure (SMILES) | melting point [°C] | IC50 [1] [µM] | IC50 [2] [µM] | IC50 [3] [µM] | also measured
CC[C@@]1(OC(=O)CNC(=O)CCC(C)C2CCC3C4C(C[C@H](O)[C@]23C)[C@@]2(C)CC[C@@H](O)CC2C[C@H]4O)C(=O)OCc2c1cc1n(c2=O)Cc2cc3ccccc3nc2-1 (stereo partly drawn) [Compound E1, Camptothecin-20 (S)-O-glycine Ester-[N-(3′α,7′α,12′α-trihydroxy-24′-carbonyl-5′β-cholane)]] | 200 to 203 | 2.23 | 18.3 | 2.9 | –
CC[C@@]1(OC(=O)CNC(=O)CCC(C)C2CCC3C4C(CC[C@]23C)[C@@]2(C)CC[C@@H](O)CC2C[C@@H]4O)C(=O)OCc2c1cc1n(c2=O)Cc2cc3ccccc3nc2-1 (stereo partly drawn) [Compound E3, Camptothecin-20 (S)-O-glycine Ester-[N-(3′α,7′β-dihydroxy-24′-carbonyl-5′β-cholane)]] | 209 to 211 | 2.18 | 61 | 2.4 | –
CC[C@@]1(OC(=O)CNC(=O)CCC(C)C2CCC3C4C(CC[C@]23C)[C@@]2(C)CC[C@@H](O)CC2C[C@H]4O)C(=O)OCc2c1cc1n(c2=O)Cc2cc3ccccc3nc2-1 (stereo partly drawn) [Compound E4, Camptothecin-20 (S)-O-glycine Ester-[N-(3′α,7′α-dihydroxy-24′-carbonyl-5′β-cholane)]] | 202 to 203 | 2.25 | 20 | 2.88 | –
CC[C@@]1(OC(=O)C(CCC(=O)OC)NC(=O)CCC(C)C2CCC3C4C(C[C@H](O)[C@]23C)[C@@]2(C)CC[C@@H](O)CC2C[C@H]4O)C(=O)OCc2c1cc1n(c2=O)Cc2cc3ccccc3nc2-1 (stereo partly drawn) [Compound F1, Camptothecin-20 (S)-O-(D-Glu (OMe)) Ester-[N-(3′α,7′α,12′α-trihydroxy-24′-carbonyl-5′β-cholane)]] | 195 to 196 | 55.7 | 40 | 70 | –
CC[C@@]1(OC(=O)C(CCC(=O)OC)NC(=O)CCC(C)C2CCC3C4CCC5C[C@H](O)CC[C@]5(C)C4C[C@H](O)[C@]23C)C(=O)OCc2c1cc1n(c2=O)Cc2cc3ccccc3nc2-1 (stereo partly drawn) [Compound F2, Camptothecin-20 (S)-O-(D-Glu(OMe))Ester-[N-(3′α,12′α-dihydroxy-24′-carbonyl-5′β-cholane)]] | 199 to 200 | 2.25 | 11.8 | 36 | half-life at 97.6 µM [4]: > 24 h
CC[C@@]1(OC(=O)C(CCC(=O)OC)NC(=O)CCC(C)C2CCC3C4C(CC[C@]23C)[C@@]2(C)CC[C@@H](O)CC2C[C@@H]4O)C(=O)OCc2c1cc1n(c2=O)Cc2cc3ccccc3nc2-1 (stereo partly drawn) [Compound F3, Camptothecin-20 (S)-O-(D-Glu(OMe)) Ester-[N-(3′α,7′β-dihydroxy-24′-carbonyl-5′β-cholane)]] | 187 to 189 | 12.2 | 46.3 | 13 | –
CC[C@@]1(OC(=O)C(CCC(=O)OC)NC(=O)CCC(C)C2CCC3C4C(CC[C@]23C)[C@@]2(C)CC[C@@H](O)CC2C[C@H]4O)C(=O)OCc2c1cc1n(c2=O)Cc2cc3ccccc3nc2-1 (stereo partly drawn) [Compound F4, Camptothecin-20 (S)-O-(D-Glu(OMe)) Ester-[N-(3′α 7′α-dihydroxy-24′-carbonyl-5′β-cholane)]] | 182 to 185 | 2.23 | 120 | 20 | –
CC[C@@]1(OC(=O)COC(=O)CCC(C)C2CCC3C4C(C[C@H](O)[C@]23C)[C@@]2(C)CC[C@@H](O)CC2C[C@H]4O)C(=O)OCc2c1cc1n(c2=O)Cc2cc3ccccc3nc2-1 (stereo partly drawn) [Compound G1, Camptothecin-20 (S)-O-acetate-[N-(3′α,7′α,12′α-trihydroxy-24′-carbonyl-5′β-cholane)]] | 230 to 233 | 0.71 | 10.9 | 4 | –
CC[C@@]1(OC(=O)COC(=O)CCC(C)C2CCC3C4CCC5C[C@H](O)CC[C@]5(C)C4C[C@H](O)[C@]23C)C(=O)OCc2c1cc1n(c2=O)Cc2cc3ccccc3nc2-1 (stereo partly drawn) [Compound G2, Camptothecin-20 (S)-O-acetate-[N-(3′α,12′α-dihydroxy-24′-carbonyl-5′β-cholane)]] | 221 to 224 | 1.24 | 4 | 2.05 | half-life at 97.6 µM [4]: > 24 h
CC[C@@]1(OC(=O)COC(=O)CCC(C)C2CCC3C4C(CC[C@]23C)[C@@]2(C)CC[C@@H](O)CC2C[C@@H]4O)C(=O)OCc2c1cc1n(c2=O)Cc2cc3ccccc3nc2-1 (stereo partly drawn) [Compound G3, Camptothecin-20 (S)-O-acetate-[N-(3′α,7′β-dihydroxy-24′-carbonyl-5′β-cholane)]] | 229 to 230 | 6.84 | 62 | 12.1 | –
CC[C@@]1(OC(=O)COC(=O)CCC(C)C2CCC3C4C(CC[C@]23C)[C@@]2(C)CC[C@@H](O)CC2C[C@H]4O)C(=O)OCc2c1cc1n(c2=O)Cc2cc3ccccc3nc2-1 (stereo partly drawn) [Compound G4, Camptothecin-20 (S)-O-acetate-[N-(3′α,7′α-dihydroxy-24′-carbonyl-5′β-cholane)]] | 228 to 229 | 0.14 | 70 | 36 | TIR (%) ([5]; dose 19.21 × 3 µmol/kg): 35.45%; TIR (%) ([5]; dose 38.42 × 3 µmol/kg): 64.55%; TIR (%) ([5]; dose 57.63 × 3 µmol/kg): 71.12%; Mice Number End of Study ([6]; dose 19.21 × 3 µmol/kg i.p.): 4; Body Weight (g) End of Study ([6]; dose 19.21 × 3 µmol/kg i.p., start of study 19.1 g): 19.4 g; Mice Number End of Study ([6]; dose 38.42 × 3 µmol/kg i.p.): 4; Body Weight (g) End of Study ([6]; dose 38.42 × 3 µmol/kg i.p., start of study 21.0 g): 21.6 g; Mice Number End of Study ([6]; dose 57.63 × 3 µmol/kg i.p.): 4; Body Weight (g) End of Study ([6]; dose 57.63 × 3 µmol/kg i.p., start of study 19.8 g): 22.1 g
CC[C@@]1(O)C(=O)OCc2c1cc1n(c2=O)Cc2cc3cc(OCCCOC(=O)CCC(C)C4CCC5C6C(C[C@H](O)C45)C4CC[C@@H](O)CC4C[C@H]6O)ccc3nc2-1 (stereo partly drawn) [Compound H1, 10-O-(3-O-(3′α,7′α,12′α-Trihydroxy-24′-carbonyl-5′β-cholan)-propyl)-20(S)-camptothecin] | – | 3.2 | 3 | 7.4 | –
CC[C@@]1(O)C(=O)OCc2c1cc1n(c2=O)Cc2cc3cc(OCCCOC(=O)CCC(C)C4CCC5C6CCC7C[C@H](O)CCC7C6C[C@H](O)C45)ccc3nc2-1 (stereo partly drawn) [Compound H2, 10-O-(3-O-(3′α,12′α-Dihydroxy-24′-carbonyl-5′β-cholan)-propyl)-20(S)-camptothecin] | – | 2.74 | 2.5 | 0.8 | TIR (%) ([5]; dose 18.82 × 3 µmol/kg): 13.27%; TIR (%) ([5]; dose 37.64 × 3 µmol/kg): 57.99%; TIR (%) ([5]; dose 56.46 × 3 µmol/kg): 61.19%; half-life at 97.6 µM [4]: > 24 h; Mice Number End of Study ([6]; dose 18.82 × 3 µmol/kg i.p.): 3; Body Weight (g) End of Study ([6]; dose 18.82 × 3 µmol/kg i.p., start of study 22.1 g): 21.1 g; Mice Number End of Study ([6]; dose 37.64 × 3 µmol/kg i.p.): 4; Body Weight (g) End of Study ([6]; dose 37.64 × 3 µmol/kg i.p., start of study 21.9 g): 18.2 g; Mice Number End of Study ([6]; dose 56.46 × 3 µmol/kg i.p.): 3; Body Weight (g) End of Study ([6]; dose 56.46 × 3 µmol/kg i.p., start of study 21.6 g): 20.0 g
CC[C@@]1(O)C(=O)OCc2c1cc1n(c2=O)Cc2cc3cc(OCCCOC(=O)CCC(C)C4CCC5C4CCC4C6CC[C@@H](O)CC6C[C@H](O)C45)ccc3nc2-1 (stereo partly drawn) [Compound H3, 10-O-(3-O-(3′α,7′β-Dihydroxy-24′-carbonyl-5′β-cholan)-propyl)-20(S)-camptothecin] | – | 3.34 | 2.8 | 0.8 | –
CC[C@@]1(O)C(=O)OCc2c1cc1n(c2=O)Cc2cc3cc(OCCCOC(=O)CCC(C)C4CCC5C4CCC4C6CC[C@@H](O)CC6C[C@@H](O)C45)ccc3nc2-1 (stereo partly drawn) [Compound H4, 10-O-(3-O-(3′α,7′α-Dihydroxy-24′-carbonyl-5′β-cholan)-propyl)-20(S)-camptothecin] | – | 2.18 | 30 | 1.4 | –
